Read-outs that look alike come from different tables or passages of the source. Marks after values point to notes of the source that are not given here.
Columns and labels:
Huh6 cells = tested on: Huh6 cells
Protocol: All experiments were performed in duplicate.
3.8–4.0 × 10^5 cells per well were seeded into 6‐well plates with 3 mL of RPMI (4% FBS) for 12 hr, then dilutions of stock solutions of the diagnostic mutagens were added for different time periods (4, 24, and 48 hr). In each experimental series solvent controls were included. Subsequently, the cells were washed twice with 3.0 mL medium. […] Finally, the cells were washed and trypsinised. Afterwards the cells were washed twice with 8.0 mL RPMI and collected on slides by cytocentrifugation (600 rpm, 5 min). The slides were air dried, fixed, and stained with DiffQuick according to the instructions of the manufacturer. For each experimental point, two cultures were tested per dose. From each culture ≥1,000 BN cells were evaluated under 400‐fold magnification (Nikon Photophot‐FXA, Tokyo, Japan). At least 2,000 binucleated cells were analyzed per dose for the determination of the different nuclear anomalies (MN, NBuds, and NBs).
The experiments were performed as described in the previous chapter. The cells were exposed only to one dose of the different mutagens and were cultivated after the seeding in 6‐well plates which contained 4% or 10% FBS in RPMI, respectively.
Data were evaluated by generalized linear model with Poisson counts. Chi‐square tests for overdispersion were applied. […] P values ≤0.05 were considered statistically significant.
^150-60 000 cells were seeded in 6 well plates with 3 ml RPMI (4% FBS), subsequently different solutions of the test compound (dissolved in medium) were added. After treatment for different time periods, the cells was washed and processed as described in the Material and Method section. […] From each culture 1000 binoculated cells were evaluated. BN-MN – number of micronucleated cells; MN - total number of micronuclei; CBPI – cytokinesis-block proliferation index
^1The experiments were conducted essentially as described in the footnote of Table S1A-I. *p≤0.05

HepaRG = details: HepaRG; ref Josse et al., 2012; cited from earlier work
HepG2 = details: cited from earlier work
Human lymphocytes = details: cited from earlier work
[1] = ref IARC (2018); cited from earlier work
[2] = 10% FBS, 24 hr treatment, 0.5 µg/ml
[3] = 10% FBS, 24 hr treatment, 1 µg/ml

COc1cc([C@@H]2c3cc4c(cc3[C@@H](O[C@@H]3O[C@@H]5CO[C@@H](C)O[C@H]5[C@H](O)[C@H]3O)[C@H]3COC(=O)[C@H]23)OCO4)cc(OC)c1O [Etoposide]
CBPI (Huh6 cells; 4% FBS, 4hrs, 0.01 µg/ml): 1.8 ± 0.1
CBPI (Huh6 cells; 4% FBS, 4hrs, 0.05 µg/ml): 1.8 ± 0.1
CBPI (Huh6 cells; 4% FBS, 4hrs, 0.1 µg/ml): 1.8 ± 0.1
CBPI (Huh6 cells; 4% FBS, 24hrs, 0.01 µg/ml): 1.9 ± 0.0
CBPI (Huh6 cells; 4% FBS, 24hrs, 0.1 µg/ml): 1.8 ± 0.0
CBPI (Huh6 cells; 4% FBS, 48hrs, 0.01 µg/ml): 1.7 ± 0.0
CBPI (Huh6 cells; 4% FBS, 48hrs, 0.1 µg/ml): 1.1 ± 0.0
CBPI (Huh6 cells; 10% FBS, 24 hr treatment, 0.1 µg/ml): 1.9 ± 0.0

ClC(Cl)=C(c1ccc(Cl)cc1)c1ccc(Cl)cc1 [dichlorodiphenyldichloroethylene]
MN formation with the longer exposure time, treatment for 1 or 7 days (in words) (HepaRG): no such effects

O=P1(N(CCCl)CCCl)NCCCO1 (stereo not shown) [cyclophosphamide]
MN induction after 28 hr compared with 1 hr exposure (in words) (HepG2): stronger effects

[NH2][Pt]([NH2])([Cl])[Cl] [CDDP, Cisplatin]
MN effects after 24 hr (or longer) compared with 4 hr treatment (in words) (Huh6 cells; 4% FBS): similar
Toxicity in MN experiment (Figure 3) (Huh6 cells; 4% FBS, 1.0 μg/ml, 48h): Toxic
BN-MN (number of micronucleated cells) (Huh6 cells; 4% FBS, 4hrs, 0.05 µg/ml): 16.0 ± 1.4 ‰
Bridges (Huh6 cells; 4% FBS, 4hrs, 0.05 µg/ml): 0.0 ± 0.0 ‰
Buds (Huh6 cells; 4% FBS, 4hrs, 0.05 µg/ml): 15.5 ± 2.1 ‰
CBPI (Huh6 cells; 4% FBS, 4hrs, 0.05 µg/ml): 1.7 ± 0.1
MN (total number of micronuclei) (Huh6 cells; 4% FBS, 4hrs, 0.05 µg/ml): 16.0 ± 1.4 ‰
BN-MN (number of micronucleated cells) (Huh6 cells; 4% FBS, 4hrs, 0.1 µg/ml): 19.5 ± 0.7 ‰
Bridges (Huh6 cells; 4% FBS, 4hrs, 0.1 µg/ml): 0.0 ± 0.0 ‰
Buds (Huh6 cells; 4% FBS, 4hrs, 0.1 µg/ml): 16.5 ± 2.1 ‰
CBPI (Huh6 cells; 4% FBS, 4hrs, 0.1 µg/ml): 1.6 ± 0.1
MN (total number of micronuclei) (Huh6 cells; 4% FBS, 4hrs, 0.1 µg/ml): 20.0 ± 1.4 ‰
BN-MN (number of micronucleated cells) (Huh6 cells; 4% FBS, 4hrs, 0.5 µg/ml): 19.5 ± 0.7 ‰
Bridges (Huh6 cells; 4% FBS, 4hrs, 0.5 µg/ml): 0.0 ± 0.0 ‰
Buds (Huh6 cells; 4% FBS, 4hrs, 0.5 µg/ml): 19.0 ± 1.4* ‰
CBPI (Huh6 cells; 4% FBS, 4hrs, 0.5 µg/ml): 1.8 ± 0.1
MN (total number of micronuclei) (Huh6 cells; 4% FBS, 4hrs, 0.5 µg/ml): 21.5 ± 0.7 ‰
BN-MN (number of micronucleated cells) (Huh6 cells; 4% FBS, 4hrs, 1 µg/ml): 31.5 ± 5.0* ‰
Bridges (Huh6 cells; 4% FBS, 4hrs, 1 µg/ml): 3.5 ± 0.7 ‰
Buds (Huh6 cells; 4% FBS, 4hrs, 1 µg/ml): 34.0 ± 5.7* ‰
CBPI (Huh6 cells; 4% FBS, 4hrs, 1 µg/ml): 1.5 ± 0.1
MN (total number of micronuclei) (Huh6 cells; 4% FBS, 4hrs, 1 µg/ml): 33.5 ± 5.0* ‰
BN-MN (number of micronucleated cells) (Huh6 cells; 4% FBS, 24hrs, 0.1 µg/ml): 13.5 ± 0.7 ‰
Bridges (Huh6 cells; 4% FBS, 24hrs, 0.1 µg/ml): 0.0 ± 0.0 ‰
Buds (Huh6 cells; 4% FBS, 24hrs, 0.1 µg/ml): 15.5 ± 0.7 ‰
CBPI (Huh6 cells; 4% FBS, 24hrs, 0.1 µg/ml): 1.8 ± 0.1
MN (total number of micronuclei) (Huh6 cells; 4% FBS, 24hrs, 0.1 µg/ml): 14.0 ± 0.0 ‰
BN-MN (number of micronucleated cells) (Huh6 cells; 4% FBS, 24hrs, 0.5 µg/ml): 25.5 ± 0.7* ‰
Bridges (Huh6 cells; 4% FBS, 24hrs, 0.5 µg/ml): 2.5 ± 0.7 ‰
Buds (Huh6 cells; 4% FBS, 24hrs, 0.5 µg/ml): 30.5 ± 2.1* ‰
CBPI (Huh6 cells; 4% FBS, 24hrs, 0.5 µg/ml): 2.0 ± 0.0
MN (total number of micronuclei) (Huh6 cells; 4% FBS, 24hrs, 0.5 µg/ml): 34.0 ± 1.4* ‰
BN-MN (number of micronucleated cells) (Huh6 cells; 4% FBS, 24hrs, 1 µg/ml): 29.5 ± 0.7* ‰
Bridges (Huh6 cells; 4% FBS, 24hrs, 1 µg/ml): 5.0 ± 1.4 ‰
Buds (Huh6 cells; 4% FBS, 24hrs, 1 µg/ml): 36.0 ± 2.8* ‰
CBPI (Huh6 cells; 4% FBS, 24hrs, 1 µg/ml): 1.8 ± 0.0
MN (total number of micronuclei) (Huh6 cells; 4% FBS, 24hrs, 1 µg/ml): 35.0 ± 1.4* ‰
BN-MN (number of micronucleated cells) (Huh6 cells; 4% FBS, 48hrs, 0.1 µg/ml): 16.5 ± 0.7 ‰
Bridges (Huh6 cells; 4% FBS, 48hrs, 0.1 µg/ml): 0.0 ± 0.0 ‰
Buds (Huh6 cells; 4% FBS, 48hrs, 0.1 µg/ml): 21.5 ± 2.1 ‰
CBPI (Huh6 cells; 4% FBS, 48hrs, 0.1 µg/ml): 1.6 ± 0.0
MN (total number of micronuclei) (Huh6 cells; 4% FBS, 48hrs, 0.1 µg/ml): 17.0 ± 1.4 ‰
CBPI (Huh6 cells; 4% FBS, 48hrs, 1 µg/ml): 1.2 ± 0.1
BN-MN (number of micronucleated cells) (Huh6 cells; 4% FBS, 48hrs, […]): 20.0 ± 1.4 ‰
MN (total number of micronuclei) (Huh6 cells; 4% FBS, 48hrs, […]): 20.5 ± 0.7 ‰
BN-MN (number of micronucleated cells) (Huh6 cells; [2]): 38.0 ± 1.4*
Bridges (Huh6 cells; [2]): 0.5 ± 0.7
Buds (Huh6 cells; [2]): 32.0 ± 5.7*
CBPI (Huh6 cells; [2]): 1.9 ± 0.0
MN (total number of micronuclei) (Huh6 cells; [2]): 40.5 ± 0.7*
BN-MN (number of micronucleated cells) (Huh6 cells; [3]): 46.5 ± 2.1*
Buds (Huh6 cells; [3]): 49.0 ± 2.8*
CBPI (Huh6 cells; [3]): 1.9 ± 0.1
MN (total number of micronuclei) (Huh6 cells; [3]): 50.0 ± 1.4*
MN frequencies with 10% serum compared with 4% serum (in words) (Huh6 cells; 24 hr treatment): pronounced increase
Lowest effective concentration (LOEC) in micronucleus experiments (Huh6 cells; Huh6): 0.5 µg/mL
Lowest effective concentration (LOEC) in micronucleus experiments (HepG2; HepG2, ref Gajski et al., 2016): 0.1 (Gajski et al., 2016) μg/mL
Lowest effective concentration (LOEC) in micronucleus experiments (Human lymphocytes; Human lymphocytes, ref Fowler et al., 2014): 1.0 (Fowler et al., 2014) μg/mL
IARC classification [1]: Crosslinking agent; causes different types of DNA damage (gene mutations and CA); IARC: Group 2A

c1ccc2c(c1)cc1ccc3cccc4ccc2c1c34 [B(a)P, Benzo(a)pyrene]
CBPI (Huh6 cells; 4% FBS, 4hrs, 5 µM): 1.6 ± 0.1
CBPI (Huh6 cells; 4% FBS, 4hrs, 10 µM): 1.6 ± 0.0
CBPI (Huh6 cells; 4% FBS, 4hrs, 20 µM): 1.6 ± 0.1
CBPI (Huh6 cells; 4% FBS, 24hrs, 5 µM): 1.4 ± 0.1
CBPI (Huh6 cells; 4% FBS, 24hrs, 10 µM): 1.2 ± 0.1
CBPI (Huh6 cells; 4% FBS, 48hrs, 0.4 µM): 1.9 ± 0.0
CBPI (Huh6 cells; 4% FBS, 48hrs, 5 µM): 1.1 ± 0.1
CBPI (Huh6 cells; 10% FBS, 24 hr treatment, 5 µM): 1.7 ± 0.0
CBPI (Huh6 cells; 10% FBS, 24 hr treatment, 10 µM): 1.3 ± 0.1

COC(=O)Nc1nc2cc(C(=O)c3cccs3)ccc2[nH]1 [noctazole]
MN formation with the longer exposure time, treatment for 1 or 7 days (in words) (HepaRG): no such effects

OO [H2O2, Hydrogen peroxide]
Change of MN rates after 48 hr treatment (in words) (Huh6 cells): slight decrease
Induction of MN after 4 hr treatment (in words) (Huh6 cells): did not cause an effect
Lowest effective concentration (LOEC) in micronucleus experiments (Huh6 cells): 10.0 µM
MN effects after 24 hr (or longer) compared with 4 hr treatment (in words) (Huh6 cells): more pronounced effects
MN frequencies with 10% serum compared with 4% serum (in words) (Huh6 cells): not increased
Lowest effective concentration (LOEC) in micronucleus experiments (Human lymphocytes): 100 (Andreoli et al., 1999) μM

Reference: article PMC6492180, “Cytome micronucleus assays with a metabolically competent human derived liver cell line (Huh6): A promising approach for routine testing of chemicals?” (Environmental and Molecular Mutagenesis, 2018)
